Laboratory results as given in patent US4743619A, “Method of treating hepatitis” (American Home Products Corporation, priority 1986, dated 1988).

Target: T1, polymerase of hepatitis B virus (Hepatitis B virus genotype D subtype ayw, UniProt P03156)
T1 construct: the Dane particles were isolated from HBV-infected human blood; from tissue; host or cells: Dane particles (HBV virions) isolated from HBV-infected human blood
Assay: in vitro endogenous DNA polymerase assay (Dane particles, radioactive nucleotide incorporation into viral DNA)
Assay type: biochemical
Conditions: for inhibition at 0.01 µg/mL: 0.01 μg/ml; for inhibition at 0.01 µg/mL / inhibition at 0.1 µg/mL: 37° C., 2 hours, Dane particle DNA polymerase; for inhibition at 0.1 µg/mL: 0.1 μg/ml; for inhibition of the polymerase of hepatitis B virus (in words): according to the endogenous DNA polymerase procedure
Description: Ten microliters of Dane particles were incubated at 37° C. for 2 hours in 100 μl containing 0.5% NP40, 0.07% BME, 66 mM Tris HCl (pH 7.6) 27 mM MgCl2, 0.40 mM NH4 Cl, 0.3 mM dATP, dGTP, and dTTP and 4 picomoles α^32 P-dCTP. The appropriate tubes also contained either 0.1 μg/ml or 0.01 μg/ml of the rifamycin derivatives (a), (b), (c), (d), or (e). The quantity of incorporation of radioactive nucleotides into viral DNA was determined by trichloroacetic acid precipitation as described by Landers et al., J. Virol. 23: 368-376, 1977. The control DNA polymerase reaction contained more than 20,000 cpm.

T1 sequence (P03156 whole entry): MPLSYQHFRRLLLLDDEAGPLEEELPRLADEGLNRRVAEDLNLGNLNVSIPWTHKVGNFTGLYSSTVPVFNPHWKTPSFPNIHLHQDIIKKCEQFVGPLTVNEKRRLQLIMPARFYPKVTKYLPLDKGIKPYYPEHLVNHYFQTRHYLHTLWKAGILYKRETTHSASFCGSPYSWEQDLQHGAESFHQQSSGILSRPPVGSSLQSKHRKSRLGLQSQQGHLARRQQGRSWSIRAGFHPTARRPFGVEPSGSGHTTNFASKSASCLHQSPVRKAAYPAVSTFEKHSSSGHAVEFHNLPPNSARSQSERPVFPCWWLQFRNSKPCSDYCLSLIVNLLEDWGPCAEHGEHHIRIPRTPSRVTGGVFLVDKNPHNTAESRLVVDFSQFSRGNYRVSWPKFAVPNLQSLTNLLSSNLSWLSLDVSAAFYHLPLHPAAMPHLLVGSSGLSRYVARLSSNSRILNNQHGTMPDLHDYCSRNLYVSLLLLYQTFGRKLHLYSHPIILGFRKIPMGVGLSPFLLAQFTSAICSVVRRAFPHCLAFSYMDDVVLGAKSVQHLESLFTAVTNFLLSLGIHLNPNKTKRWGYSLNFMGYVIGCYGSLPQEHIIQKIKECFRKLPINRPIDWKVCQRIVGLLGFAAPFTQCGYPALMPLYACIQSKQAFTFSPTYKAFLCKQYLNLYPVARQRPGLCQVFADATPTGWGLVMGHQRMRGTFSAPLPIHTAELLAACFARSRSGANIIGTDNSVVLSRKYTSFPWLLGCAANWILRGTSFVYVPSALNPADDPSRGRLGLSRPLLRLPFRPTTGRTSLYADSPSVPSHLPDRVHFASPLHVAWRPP

Row | SMILES | inhibition at 0.01 µg/mL [%] | inhibition at 0.1 µg/mL [%] | inhibition of the polymerase of hepatitis B virus (in words)
1 | CO[C@H]1/C=C/O[C@@]2(C)Oc3c(C)c(O)c4c(O)c(c(C=NN(C)C)c(OS(=O)(=O)CCCc5ccccc5)c4c3C2=O)NC(=O)/C(C)=C\C=C\[C@H](C)[C@H](O)[C@@H](C)[C@@H](O)[C@@H](C)[C@H](OC(C)=O)[C@@H]1C [(e), 3-[(dimethylhydrazono)methyl]-4-O-[(3-phenylpropyl)sulfonyl]-rifamycin SV] | 25.1 | 85.6 | inhibit the polymerase of hepatitis B virus
2 | CCCCS(=O)(=O)Oc1c(C=NN2CCCCC2)c2c(O)c3c(O)c(C)c4c(c13)C(=O)[C@@](C)(O/C=C/[C@H](OC)[C@@H](C)[C@@H](OC(C)=O)[C@H](C)[C@H](O)[C@H](C)[C@@H](O)[C@@H](C)/C=C/C=C(/C)C(=O)N2)O4 [(c), 4-O-(n-butylsulfonyl)-3-[(1-piperidinylimino)methyl]-rifamycin SV] | 8.3 | 55.7 | inhibit the polymerase of hepatitis B virus
3 | CO[C@H]1/C=C/O[C@@]2(C)Oc3c(C)c(O)c4c(c3C2=O)C(=N)C(N)=C(NC(=O)/C(C)=C\C=C\[C@H](C)[C@H](O)[C@@H](C)[C@@H](O)[C@@H](C)[C@H](OC(C)=O)[C@@H]1C)C4=O [(a), 3-amino-4-deoxo-4-imino-rifamycin S] | 17.2 | 54.1 | –
4 | COC1C=COC2(C)Oc3c(C)c(O)c4c(O)c(c5c(c4c3C2=O)N(S(C)(=O)=O)C(C)N5)NC(=O)C(C)=CC=CC(C)C(O)C(C)C(O)C(C)C(OC(C)=O)C1C (centres unmarked) [(f), 4-deoxo-N,3-ethylidenimino-4-(methylsulfonyl)amino rifamycin SV] | 23.8 | 84.6 | inhibit the polymerase of hepatitis B virus
5 | CCCCS(=O)(=O)Oc1c(C=NN2CCOCC2)c2c(O)c3c(O)c(C)c4c(c13)C(=O)[C@@](C)(O/C=C/[C@H](OC)[C@@H](C)[C@@H](OC(C)=O)[C@H](C)[C@H](O)[C@H](C)[C@@H](O)[C@@H](C)/C=C/C=C(/C)C(=O)N2)O4 [(d), 4-O-(n-butylsulfonyl)-3-[(4-morpholinylimino)methyl]-rifamycin SV] | 10.2 | 92.5 | inhibit the polymerase of hepatitis B virus
6 | CO[C@H]1/C=C/O[C@@]2(C)Oc3c(C)c(O)c4c(O)c(c(N)c(NS(=O)(=O)c5ccc(N)cc5)c4c3C2=O)NC(=O)/C(C)=C\C=C\[C@H](C)[C@H](O)[C@@H](C)[C@@H](O)[C@@H](C)[C@H](OC(C)=O)[C@@H]1C [(b), 3-amino-4-deoxo-4-[(4-aminophenyl)sulfonyl]amino-rifamycin SV] | 10 | 89 | inhibit the polymerase of hepatitis B virus
